According to article PMC7686313, “Phase 1 study of mTORC1/2 inhibitor sapanisertib (TAK-228) in advanced solid tumours, with an expansion phase in renal, endometrial or bladder cancer” (British Journal of Cancer, 2020):
Like-named read-outs stand apart in the source and are kept apart here.

Tests used:
[1] = Plasma pharmacokinetics (LC-MS/MS); format: in vivo, human; details: human, plasma, oral
Experimental: Peripheral blood was collected serially to quantify plasma levels of sapanisertib for PK analysis via validated liquid chromatography tandem mass spectrometry with an assay range of 1–1000 ng/mL (MicroConstants, San Diego, CA), during both dose-escalation and expansion phases. Blood samples were collected before each dose and 0.5, 1, 2, 4, 8 and 24 h after dosing on cycle 1, day 1 and cycle 2, day 1, in the dose-escalation phase. In the expansion phase, samples were collected predose and 2, 4 and 6 h postdose on cycle 1, day 1, and then predose and 2 h postdose on day 8, 15 or 22 of cycle 1.

[2] = tested on: p4EBP1, pS6, pPRAS40 and pNDRG1 (TORC1/2 biomarkers); assay: Pharmacodynamics in skin biopsies (IHC); format: in vivo, human; details: doses of ≥4 mg; baseline vs days 8–15 (3 h postdose) of cycle 1
Experimental: (§1) The tissue PK and PD of sapanisertib were investigated in skin and tumour biopsies. During dose escalation, 3-mm core skin biopsies were collected predose and on any day from 8–15 (3 h postdose) of cycle 1 for immunohistochemistry (IHC) assessment of mTORC1 downstream effects (p4EBP1, pS6) and pNDRG1 (Mosaic Laboratories, Lake Forest, CA). […] Archival tumour tissues for assessment of prognostic markers were collected at baseline.
(§2) During dose-escalation, the PD effect of sapanisertib on downstream effectors of TORC1 (p4EBP1 and pS6) and TORC2 (pPRAS40 and pNDRG1) was measured in skin-tissue biopsies from 88 patients collected at baseline and days 8–15 (3 h postdose) of cycle 1. […] PD data in tumour tissue were limited due to the small number of samples. For the five patients with paired tumour samples available for review (biopsies at baseline and cycle 1, week 2), the levels of p4EBP1, pS6, pPRAS40 and pNDRG1 decreased after sapanisertib treatment (Supplementary Fig. 4).

[3] = tested on: p4EBP1, pS6, pPRAS40 and pNDRG1 (TORC1/2 biomarkers); assay: Pharmacodynamics in paired tumour biopsies; format: in vivo, human; details: five patients with paired tumour samples; baseline vs cycle 1, week 2
Experimental: as §1, §2

[4] = set-up: method as in PMID 26800393; details: advanced haematological malignancies, cited from earlier work

CC(C)n1nc(-c2ccc3oc(N)nc3c2)c2c(N)ncnc21 [Sapanisertib]
AUC(0-t) ([1]; 9 mg, cycle 2, day 1, QDx3dQW 9 mg, read-out: AUC0–24h [%CV]): 707 ng·h/mL
Tmax ([1]; 9 mg, cycle 2, day 1, QDx3dQW 9 mg, read-out: Tmax, median): 2.1 h
half-life ([1]; 9 mg, cycle 2, day 1, QDx3dQW 9 mg, read-out: t½ (converted)): 414 min
Cmax ([1]; 10 mg, cycle 1, day 1, 10 mg): 48.4 ng/mL
AUC(0-t) ([1]; 10 mg, cycle 1, day 1, 10 mg, read-out: AUC0–24h [%CV]): 342 ng·h/mL
AUC(0-t) ([1]; 10 mg, cycle 1, day 1, 10 mg, read-out: AUC0–last [%CV]): 153 ng·h/mL
Tmax ([1]; 10 mg, cycle 1, day 1, 10 mg, read-out: Tmax, median): 2.8 h
half-life ([1]; 10 mg, cycle 1, day 1, 10 mg, read-out: t½ (converted)): 384 min
Cmax ([1]; 10 mg, cycle 2, day 1, QDx5dQW 10 mg): 57 ng/mL
AUC(0-t) ([1]; 10 mg, cycle 2, day 1, QDx5dQW 10 mg, read-out: AUC0–24h [%CV]): 366 ng·h/mL
half-life ([1]; 10 mg, cycle 2, day 1, QDx5dQW 10 mg, read-out: t½ (converted)): 342 min
Tmax ([1]; 10 mg, cycle 2, day 1, QW 10 mg, read-out: Tmax, median): 2.9 h
Cmax ([1]; 12 mg, cycle 1, day 1, 12 mg): 99.5 ng/mL
AUC(0-t) ([1]; 12 mg, cycle 1, day 1, 12 mg, read-out: AUC0–24h [%CV]): 730 ng·h/mL
half-life ([1]; 12 mg, cycle 1, day 1, 12 mg, read-out: t½ (converted)): 444 min
Cmax ([1]; 12 mg, cycle 2, day 1, QDx3dQW 12 mg): 113 ng/mL
AUC(0-t) ([1]; 12 mg, cycle 2, day 1, QDx3dQW 12 mg, read-out: AUC0–24h [%CV]): 707 ng·h/mL
Tmax ([1]; 12 mg, cycle 2, day 1, QDx3dQW 12 mg, read-out: Tmax, median): 3.7 h
half-life ([1]; 12 mg, cycle 2, day 1, QDx3dQW 12 mg, read-out: t½ (converted)): 294 min
Cmax ([1]; 13 mg, cycle 1, day 1, 13 mg): 93.6 ng/mL
AUC(0-t) ([1]; 13 mg, cycle 1, day 1, 13 mg, read-out: AUC0–24h [%CV]): 953 ng·h/mL
Tmax ([1]; 13 mg, cycle 1, day 1, 13 mg, read-out: Tmax, median): 2.1 h
half-life ([1]; 13 mg, cycle 1, day 1, 13 mg, read-out: t½ (converted)): 522 min
Cmax ([1]; 15 mg, cycle 1, day 1, 15 mg): 56.7 ng/mL
AUC(0-t) ([1]; 15 mg, cycle 1, day 1, 15 mg, read-out: AUC0–24h [%CV]): 518 ng·h/mL
half-life ([1]; 15 mg, cycle 1, day 1, 15 mg, read-out: t½ (converted)): 564 min
Cmax ([1]; 15 mg, cycle 2, day 1, QW 15 mg): 64.9 ng/mL
AUC(0-t) ([1]; 15 mg, cycle 2, day 1, QW 15 mg, read-out: AUC0–24h [%CV]): 604 ng·h/mL
Cmax ([1]; 16 mg, cycle 1, day 1, 16 mg): 66.7 ng/mL
AUC(0-t) ([1]; 16 mg, cycle 1, day 1, 16 mg, read-out: AUC0–24h [%CV]): 689 ng·h/mL
Tmax ([1]; 16 mg, cycle 1, day 1, 16 mg, read-out: Tmax, median): 2.1 h
half-life ([1]; 16 mg, cycle 1, day 1, 16 mg, read-out: t½ (converted)): 420 min
Cmax ([1]; 16 mg, cycle 2, day 1, QDx3dQW 16 mg): 92.1 ng/mL
AUC(0-t) ([1]; 16 mg, cycle 2, day 1, QDx3dQW 16 mg, read-out: AUC0–24h [%CV]): 744 ng·h/mL
Tmax ([1]; 16 mg, cycle 2, day 1, QDx3dQW 16 mg, read-out: Tmax, median): 2.1 h
Cmax ([1]; 20 mg, cycle 1, day 1, 20 mg): 154 ng/mL
AUC(0-t) ([1]; 20 mg, cycle 1, day 1, 20 mg, read-out: AUC0–24h [%CV]): 1260 ng·h/mL
Tmax ([1]; 20 mg, cycle 1, day 1, 20 mg, read-out: Tmax, median): 2.1 h
half-life ([1]; 20 mg, cycle 1, day 1, 20 mg, read-out: t½ (converted)): 390 min
Tmax ([1]; 20 mg, cycle 2, day 1, QW 20 mg, read-out: Tmax, median): 4 h
Cmax ([1]; 30 mg, cycle 1, day 1, 30 mg): 162 ng/mL
AUC(0-t) ([1]; 30 mg, cycle 1, day 1, 30 mg, read-out: AUC0–24h [%CV]): 1080 ng·h/mL
half-life ([1]; 30 mg, cycle 1, day 1, 30 mg, read-out: t½ (converted)): 354 min
Cmax ([1]; 30 mg, cycle 2, day 1, QW 30 mg): 133 ng/mL
AUC(0-t) ([1]; 30 mg, cycle 2, day 1, QW 30 mg, read-out: AUC0–24h [%CV]): 1120 ng·h/mL
Tmax ([1]; 30 mg, cycle 2, day 1, QW 30 mg, read-out: Tmax, median): 4 h
half-life ([1]; 30 mg, cycle 2, day 1, QW 30 mg, read-out: t½ (converted)): 342 min
Cmax ([1]; 40 mg, cycle 1, day 1, 40 mg): 172 ng/mL
AUC(0-t) ([1]; 40 mg, cycle 1, day 1, 40 mg, read-out: AUC0–24h [%CV]): 1640 ng·h/mL
Tmax ([1]; 40 mg, cycle 1, day 1, 40 mg, read-out: Tmax, median): 2.4 h
half-life ([1]; 40 mg, cycle 1, day 1, 40 mg, read-out: t½ (converted)): 456 min
Cmax ([1]; 40 mg, cycle 2, day 1, QW 40 mg): 232 ng/mL
AUC(0-t) ([1]; 40 mg, cycle 2, day 1, QW 40 mg, read-out: AUC0–24h [%CV]): 2220 ng·h/mL
half-life ([1]; 40 mg, cycle 2, day 1, QW 40 mg, read-out: t½ (converted)): 384 min
Tmax ([1]; range across all doses, read-out: Median Tmax): 1 to 2.8 h
half-life ([1]; range, 2–40 mg dose range, read-out: Mean plasma half-life): 354 to 564 min
Change in p4EBP1, pS6, pPRAS40 and pNDRG1 in skin [2]: Treatment-related decreases
Levels of p4EBP1, pS6, pPRAS40 and pNDRG1 in tumour [3]: decreased
MTD ([4]; QD dosing): 4 mg
MTD ([4]; QD × 3dQW): 9 mg
